Data on 28 compounds can be found in PMC8286840, “Identifying SARS-CoV-2 antiviral compounds by screening for small molecule inhibitors of Nsp3 papain-like protease” (Biochemical Journal, 2021).

Where a name gives a salt, the structure may show the parent alone. Read-outs that look alike come from different tables or passages of the source.

Test [1] deals with T1, SARS-CoV-2 PLpro (nsp3 1564–1878) (Severe acute respiratory syndrome coronavirus 2, UniProt P0DTD1). The test can be described thus: biochemical. On the set-up: FRET-quenched peptide (Pro3) cleavage by PLpro, 10 min pre-incubation, slope over 20 min, normalised to no-compound control. The following applies: low concentration screen, read-out: % of control remaining.
For test [2], the target named is T1, SARS-CoV-2 PLpro (nsp3 1564–1878). Put plainly: biochemical. Also noted: FRET-quenched peptide (Pro3) cleavage by PLpro, 10 min pre-incubation, slope over 20 min, normalised to no-compound control. The following applies: high concentration screen, read-out: % of control remaining.

`O=C(Nc1ccc(C(O)(C(F)(F)F)C(F)(F)F)cc1)c1ccc(C(F)(F)F)cc1` [SR1078]: the remaining activity at 1.25 µM in test [1] (Well no.=8503) came out at 107%. In addition, the remaining activity at 3.75 µM in test [2] (Well no.=8503) amounted to 105%.

For `Nc1ncnc2c1ncn2C1CCCC1` [9-cyclopentyladenine], the remaining activity at 1.25 µM in test [1] (Well no.=176) came to 93.3%. In test [2] (Well no.=176), the remaining activity at 3.75 µM was 91.5%.

Turning to `C/C(=C\c1ccc(C(=O)O)cc1)c1ccc2c(c1)C(C)(C)CCC2(C)C` [TTNPB], the values for the remaining activity at 1.25 µM in test [1] (Well no.=1429) and in test [1] (Well no.=4436) were 97.8% and 93%, respectively. The remaining activity at 3.75 µM in test [2] (Well no.=1429) was found to be 99.8%; in test [2] (Well no.=4436), 100%.

As for `COc1ccc(/C=C\c2cc(OC)c(OC)c(OC)c2)cc1OP(=O)(O)O` [Fosbretabulin disodium], the remaining activity at 1.25 µM in test [1] (Well no.=5660) is 95.9%. Also, the remaining activity at 3.75 µM in test [2] (Well no.=5660) is 90.4%.

In the case of `CCCN[C@H]1CCc2nc(N)sc2C1` [Pramipexole (dihydrochloride)], in test [1] (Well no.=6229), the remaining activity at 1.25 µM worked out at 108%. Also, in test [2] (Well no.=6229), the remaining activity at 3.75 µM worked out at 106%.

For `Cc1cnc(C(=O)O)c[n+]1[O-]` [Acipimox], the remaining activity at 1.25 µM in test [1] (Well no.=2069) was 102%. For the same compound, the remaining activity at 3.75 µM in test [2] (Well no.=2069) is 104%.

In the case of `CC(C)n1c(/C=C/[C@H](O)C[C@H](O)CC(=O)O)c(-c2ccc(F)cc2)c2ccccc21` [Fluvastatin], the remaining activity at 1.25 µM in test [1] (Well no.=1902) was 97.7%. For the same compound, in test [2] (Well no.=1902), the remaining activity at 3.75 µM worked out at 98.9%.

As to `COc1ccc2[nH]c([S+]([O-])Cc3ncc(C)c(OC)c3C)nc2c1` (stereo not drawn) [Omeprazole], the remaining activity at 1.25 µM in test [1] (Well no.=2051) was 101%. Moreover, the remaining activity at 3.75 µM in test [2] (Well no.=2051) was 101%.

As to `O=C(O)CSc1nnc(Br)n1-c1ccc(C2CC2)c2ccccc12` [Lesinurad], the remaining activity at 1.25 µM in test [1] (Well no.=8158) came out at 102%. Besides, the remaining activity at 3.75 µM in test [2] (Well no.=8158) is 104%.

Turning to `CCCCC(C)(C)[C@H](O)/C=C/[C@H]1[C@H](O)CC(=O)[C@@H]1C/C=C\CCCC(=O)O` [16,16-Dimethyl-prostaglandin E2], the remaining activity at 1.25 µM in test [1] (Well no.=4517) worked out at 96.1%. For the same compound, the remaining activity at 3.75 µM in test [2] (Well no.=4517) came to 99.3%.

For `Oc1ccc(-c2nc(-c3ccc(F)cc3)c(-c3ccncc3)[nH]2)cc1` [SB 202190 - 4-[4-(4-Fluorophenyl)-5-(4-pyridinyl)-1H-imidazol-2-yl]phenol], the remaining activity at 1.25 µM in test [1] (Well no.=2380) was determined as 96.6%. Further, the remaining activity at 3.75 µM in test [2] (Well no.=2380) worked out at 94.8%.

Consider `CC1=CC(=O)C2=C(C)CC[C@@H]3[C@H](OC(=O)[C@H]3C)[C@@H]12` [Leucomisine], for which the remaining activity at 1.25 µM in test [1] (Well no.=3248) stood at 94.5%. Further, the remaining activity at 3.75 µM in test [2] (Well no.=3248) stood at 96.8%.

On to `CCCCc1oc2ccc(NS(C)(=O)=O)cc2c1C(=O)c1ccc(OCCCN(CCCC)CCCC)cc1` [Dronedarone], for which the remaining activity at 1.25 µM in test [1] (Well no.=8285) came out at 100%. Also, in test [2] (Well no.=8285), the remaining activity at 3.75 µM turned out to be 94.4%.

For `CN(C)c1ccccc1CN1CCCN(Cc2ccccc2N(C)C)C1c1ccncc1` [2-[(3-[2-(dimethylamino)benzyl]-2-(4-pyridinyl)tetrahydro-1(2H)-pyrimidinyl)methyl]-N,N-dimethylaniline], in test [1] (Well no.=5454), the remaining activity at 1.25 µM amounted to 96.1%. The remaining activity at 3.75 µM in test [2] (Well no.=5454) was found to be 100%.

Turning to `N[C@@H](COP(=O)(O)O)C(=O)O` [O-Phospho-L-serine], the remaining activity at 1.25 µM in test [1] (Well no.=806) is 98%; in test [1] (Well no.=6867), 99.1%; in test [1] (Well no.=6956) it was 101%. Besides, the remaining activity at 3.75 µM in test [2] (Well no.=806) was 95.7%; in test [2] (Well no.=6867), 99.4%; in test [2] (Well no.=6956) it was 101%.

In the case of `O=c1[nH]c(=O)n([C@@H]2O[C@H](CO)[C@@H](O)[C@H]2O)cc1F` [5-Fluorouridine], in test [1] (Well no.=7900), the remaining activity at 1.25 µM is 95.4%. Moreover, the remaining activity at 3.75 µM in test [2] (Well no.=7900) was 91.5%.

With `CC(C)[C@H]1C(=O)O[C@@H]2CCN3CC=C(COC(=O)[C@](C)(O)[C@]1(C)O)[C@H]23` [Trichodesmine], in test [1] (Well no.=3205), the remaining activity at 1.25 µM is 105%. Further, the remaining activity at 3.75 µM in test [2] (Well no.=3205) is 106%.

Take `C#CCN1C(C)=C(C(=O)OC)C(c2cccc([N+](=O)[O-])c2)C(C(=O)OCC)=C1C` (stereo not drawn) [MRS 1845]: in test [1] (Well no.=968), the remaining activity at 1.25 µM is 95.8%. Further, the remaining activity at 3.75 µM in test [2] (Well no.=968) was found to be 96.5%.

In the case of `CN(C)c1cccc(-c2c3c(=O)n(-c4ccccc4Cl)[nH]c3cc(=O)n2C)c1` [GKT137831], in test [1] (Well no.=9078), the remaining activity at 1.25 µM was 96.8%. For the same compound, the remaining activity at 3.75 µM in test [2] (Well no.=9078) is 89.9%.

As for `CN1[C@H]2C[C@H](OC(=O)[C@H](CO)c3ccccc3)C[C@@H]1[C@@H](O)C2` [Anisodamine], the remaining activity at 1.25 µM in test [1] (Well no.=3474) was 96.3%. Further, in test [2] (Well no.=3474), the remaining activity at 3.75 µM was 92.3%.

With `O=C(O)CCCCCCCCCCCCCCC(=O)O` [Hexadecanedioic acid], in test [1] (Well no.=6685), the remaining activity at 1.25 µM was 104%. Also, the remaining activity at 3.75 µM in test [2] (Well no.=6685) came out at 106%.

On to `O=C(CO)[C@@H](O[C@H]1O[C@H](CO)[C@@H](O)[C@H](O)[C@H]1O)[C@H](O)[C@H](O)CO` [Turanose], for which the remaining activity at 1.25 µM in test [1] (Well no.=6971) worked out at 92.9%. Besides, the remaining activity at 3.75 µM in test [2] (Well no.=6971) came out at 98.6%.

Take `C[N+](C)(C)CCOP(=O)(O)OP(=O)([O-])OC[C@H]1O[C@@H](n2ccc(N)nc2=O)[C@H](O)[C@@H]1O` [Citicoline sodium salt]: in test [1] (Well no.=7726), the remaining activity at 1.25 µM is 104%. Besides, in test [2] (Well no.=7726), the remaining activity at 3.75 µM is 110%.

Take `COc1cc2c[n+](C)c3c4cc5c(cc4ccc3c2cc1OC)OCO5` [2,3-dimethoxy-12-methyl[1,3]benzodioxolo[5,6-c]phenanthridin-12-ium chloride]: the remaining activity at 1.25 µM in test [1] (Well no.=5862) amounted to 100%. In test [2] (Well no.=5862), the remaining activity at 3.75 µM came to 98.5%.

As to `C[C@@H]1O[C@@H](OC[C@H]2O[C@@H](Oc3c(-c4ccc(O)c(O)c4)oc4cc(O)cc(O)c4c3=O)[C@H](O)[C@@H](O)[C@@H]2O)[C@H](O)[C@H](O)[C@H]1O` [Rutin], in test [1] (Well no.=3711), the remaining activity at 1.25 µM came to 103%. In addition, the remaining activity at 3.75 µM in test [2] (Well no.=3711) was 106%.

For the compound `CO[C@@]12[C@H](COC(N)=O)C3=C(C(=O)C(C)=C(N)C3=O)N1C[C@@H]1N[C@@H]12` [Mitomycin C], the values for the remaining activity at 1.25 µM in test [1] (Well no.=1672), in test [1] (Well no.=3563) and in test [1] (Well no.=7364) were 110%, 98.9% and 98.5%, respectively. Moreover, the remaining activity at 3.75 µM in test [2] (Well no.=1672) stood at 110%; in test [2] (Well no.=3563), 100%; in test [2] (Well no.=7364) it was 102%.

Turning to `Cc1c(-c2ccccc2)oc2c(C(=O)OCCN3CCCCC3)cccc2c1=O` [Flavoxate HCl], the remaining activity at 1.25 µM in test [1] (Well no.=5084) worked out at 99%. Also, in test [2] (Well no.=5084), the remaining activity at 3.75 µM turned out to be 102%.

Take `CCN1CCN(C(=O)N[C@@H](C(=O)N[C@@H]2C(=O)N3[C@@H]2SC(C)(C)[C@@H]3C(=O)O)c2ccccc2)C(=O)C1=O` [Piperacillin (sodium)]: the remaining activity at 1.25 µM in test [1] (Well no.=8072) worked out at 96.2%. The remaining activity at 3.75 µM in test [2] (Well no.=8072) was 91.7%.
